Reference: article PMC10928712, “High Target Homology Does Not Guarantee Inhibition: Aminothiazoles Emerge as Inhibitors of Plasmodium falciparum” (ACS Infectious Diseases, 2024)
≈ marks a conversion by molar mass, not a printed value.

What was measured:
[1] = test system: P. falciparum 3D7; assay: Method I growth-inhibition assay (SYBR Green I, 96 h); format: cell-based; details: Plasmodium falciparum; 3D7, method I; nM; read-out: IC50 3D7-I
From the text: Nonlinear regression as implemented in GraphPad Prism 7.00 (log(inhibitor) vs response – variable slope (four parameters)) was used to fit the measured data to interpolate the IC50 value from the curve. No specific model was applied. Data was preprocessed by normalizing according to the following formula: […]
eq 1: Fluorescence data normalization [drawing 2] where y is the fluorescence signal in each well, yminimum is the background fluorescence, and ymaximum is the highest measured fluorescence signal in the untreated wells. Drug concentrations (in μM) were transformed to the log(10)of the values. Means of each independent experiment were plotted as individual values, and the SD of the mean from the means shown as error bars. […] In case of transgenic cell lines, the built-in comparison Akaike’s information criteria (AICc) method was applied to the Log IC50s of the different cell lines. The test calculates a percentage probability of the simpler model “Log IC50 is the same for datasets” being correct. The test for homoscedasticity was performed to confirm if no weighting of values was appropriate.

[2] = test system: P. falciparum 3D7; assay: Method III growth inhibition assay (HRP2-ELISA, 3 days), 3D7; format: cell-based, Plasmodium falciparum
[3] = test system: P. falciparum Dd2; assay: Method III growth inhibition assay (HRP2-ELISA, 3 days), Dd2; format: cell-based, Plasmodium falciparum
[4] = test system: P. falciparum 3D7; assay: Method II growth-inhibition assay (PicoGreen, 3 days), 3D7; format: cell-based; details: Plasmodium falciparum; 3D7, method II; read-out: IC50 3D7-II
From the text: (§1) Fidock (Columbia University).

[5] = test system: P. falciparum NF54; assay: Method II growth-inhibition assay (PicoGreen, 3 days), NF54; format: cell-based; details: Plasmodium falciparum; chloroquine-sensitive NF54, method II
From the text: as §1

[6] = test system: P. falciparum 3D7; assay: IDP rescue assay, P. falciparum 3D7; format: cell-based; details: Plasmodium falciparum
Protocol: (§2) Fidock (Columbia University). […] P. falciparum cultures were treated as described in method II. For IDP (Isoprenoids.com) rescue experiments, 125 μM IDP was added to the appropriate wells for the duration of the experiment. The well-described DXR inhibitor FSM was used as a positive control. IC50 values were calculated by nonlinear regression analysis using GraphPad Prism software. All experiments were performed at least in triplicate, and data reported represent the mean ± SD.

[7] = test system: P. falciparum NF54; assay: IDP rescue assay, P. falciparum NF54; format: cell-based; details: Plasmodium falciparum
Protocol: as §2

[8] = Kinetic solubility determination; format: physicochemical; details: PBS buffer and 2% DMSO; for solubility at 5 min: PBS with 2% DMSO, aqueous buffer, kinetic from dmso stock, read-out: Max. solubility
Protocol: The desired compounds were sequentially diluted in DMSO in a 96-well plate. 3 μL of each well was transferred into another 96-well plate and mixed with 147 μL of PBS. Plates were shaken for 5 min at 600 rpm at room temperature (r.t.), and the absorbance at 620 nm was measured. Absorbance values were normalized by blank subtraction and plotted using GraphPad Prism 8.4.2 (GraphPad Software, San Diego, California, USA). Solubility (S) was determined based on the First X value of AUC function using a threshold of 0.005.

[9] = test system: Hep G2 cells; assay: Hep G2 viability assay (counter screen); format: cell-based, human; details: for IC50: HepG2, 48 h, cytotoxicity, 48 h
Protocol: HepG2 cells (2 × 10^5 cells per well) were seeded in 24-well, flat-bottomed plates. Culturing of cells, incubations, and OD measurements were performed as described previously with small modifications.[58] 24 h after seeding the cells, the incubation was started by the addition of compounds in a final DMSO concentration of 1%. The metabolic activity of the living cell mass was determined after 48 h. At least three independent measurements were performed for each compound. The IC50 values were determined during logarithmic growth using GraphPad Prism software. All experiments were performed at least in triplicate, and data reported represent the mean ± SD.

[10] = Metabolic stability in human liver S9 fraction; format: in vitro ADME; details: human, pooled liver S9 fraction, 1 μM compound
Protocol: For the evaluation of combined phase I and phase II metabolic stability, the compound (1 μM) was incubated with 1 mg/mL pooled liver S9 fraction (XenoTech), 2 mM NADPH, 1 mM UDPGA, 10 mM MgCl2, 5 mM GSH, and 0.1 mM PAPS at 37 °C for 0, 5, 15, 30, and 60 min. The metabolic stabilities of testosterone (1 μM), verapamil (1 μM), and propranolol (1 μM) were determined in parallel to confirm the enzymatic activity of the S9 fraction. The incubation was stopped by precipitation of S9 enzymes with two volumes of cold acetonitrile containing internal standard (150 nM diphenhydramine). Samples were stored on ice for 10 min, and precipitated protein was removed by centrifugation (15 min, 4 °C, 4000 rpm). The concentration of the remaining test compound at the different time points was analyzed by LC-MS/MS (TSQ Quantum Access MAX, Thermo Fisher, Dreieich, Germany) and used to determine half-life (t1/2).

[11] = Plasmodium falciparum, DD2, chloroquine-resistant Dd2, method III
[12] = Plasmodium falciparum, 3D7, 3D7, method III (HRP2 assay), drc package of R, read-out: IC50 P. falciparum 3D7 (method III)
[13] = Plasmodium falciparum, 3D7, table of compounds as SMILES with biological activity, strain not given, values match 3D7 method III, read-out: IC50
[14] = 3D7, method III (HRP2 assay), drc package of R, read-out: IC50 P. falciparum 3D7 (method III)

Row | Molecule | IC50 [3, 11] | IC50 [2, 12] | IC50 [2, 13] | IC50 [2, 14] | other results
1 | CCN(CC)CCCC(C)Nc1ccnc2cc(Cl)ccc12 (stereo not drawn) [Chloroquine, chloroquine diphosphate, reference compound] | 0.19 ± 0.03 µM | – | – | – | IC50 [1]: 17.8 ± 3.1 nM; IC50 ([2]; Plasmodium falciparum, 3D7, 3D7, method III, nM, read-out: IC50 3D7-III): 2.8 ± 0.7 nM
2 | O=CN(O)CCCP(=O)(O)O [FSM, fosmidomycin, reference compound] | – | – | – | – | IC50 [4]: 0.9 ± 0.2 µM; IC50 [5]: 0.7 ± 0.3 µM; IC50 ([6]; 3D7, 72 h, + IDP (125 μM)): 37.4 ± 18.2 µM; IC50 ([6]; 3D7, without IDP): 0.9 ± 0.4 µM; IC50 ([7]; NF54, 72 h, + IDP (125 μM)): 7.8 ± 0.3 µM; IC50 ([7]; NF54, without IDP): 0.9 ± 0.5 µM
3 | COc1cc(O)ccc1/C(Cc1ccc(N)cc1)=N/O [compound 4, (E)-2-(4-Aminophenyl)-1-(4-hydroxy-2-methoxyphenyl)ethan-1-one oxime] | 94 ± 16 µM | > 111000 nM | – | – | Max. solubility [8]: 202.6 ± 1.6 µM; solubility at 5 min [8]: ~200 µM (≈ 54.5 µg/mL)
4 | Nc1ccc(C/C(=N\O)c2ccc(O)cc2O)cc1 [compound 5, (E)-2-(4-Aminophenyl)-1-(2,4-dihydroxyphenyl)ethan-1-one oxime] | > 111 µM | > 111000 nM | – | – | Max. solubility [8]: 193.6 ± 95.7 µM; solubility at 5 min [8]: ~200 µM (≈ 51.7 µg/mL)
5 | COc1ccc(/C(Cc2ccc(N)cc2)=N/O)c(OC)c1 [compound 6, (E)-2-(4-Aminophenyl)-1-(2,4-dimethoxyphenyl)ethan-1-one oxime] | > 111 µM | > 111000 nM | – | – | solubility at 5 min [8]: 119 ± 27.4 µM (≈ 34.2 µg/mL)
6 | Nc1ccc(C(Cc2ccc(Cl)cc2)=NO)c(O)c1 [compound 10] | 24 ± 4 µM | 38000 ± 11000 nM | 38200 nM | – | IC50 ([9]; Homo sapiens): 50 to 100 µM; half-life at 1 μM [10]: 0.9333 ± 0.00667 h
7 | NN=C(Cc1ccc(Cl)cc1)c1ccc(O)cc1O [compound 12] | 14 ± 5 µM | 16000 nM | – | – | IC50 [4]: 46 ± 3 µM; IC50 [5]: 45 ± 7 µM
8 | Oc1ccc(C(O)Cc2ccc(Cl)cc2)c(O)c1 (stereo not drawn) [compound 13, 4-(2-(4-Chlorophenyl)-1-hydroxyethyl)benzene-1,3-diol] | 28 ± 13 µM | 9900 ± 1700 nM | – | 10000 ± 2000 nM | IC50 ([9]; Homo sapiens): > 100 µM; cytotoxicity towards Hep G2 cells ([9]; at 100 μM): no cytotoxicity; half-life at 1 μM [10]: 1.63 ± 0.167 h
9 | OCc1cn(Cc2cccc(Cl)c2)c2cccc(F)c12 [compound 24, (1-(3-Chlorobenzyl)-4-fluoro-1H-indol-3-yl)methanol] | 10 ± 1 µM | 12000 ± 1000 nM | – | – | –
10 | OCc1cn(Cc2ccccc2)c2cccc(F)c12 [compound 25, (1-Benzyl-4-fluoro-1H-indol-3-yl)methanol] | 9 µM | 12000 ± 2000 nM | 11900 nM | – | –
11 | Cc1cn(Cc2ccc(Cl)c(Cl)c2)c2ccccc12 [compound 26, 1-(3,4-Dichlorobenzyl)-3-methyl-1H-indole] | 11 ± 5 µM | ~10000 nM | – | 10200 nM | –
12 | OCc1cn(Cc2ccc(Cl)c(Cl)c2)c2cc(F)ccc12 [compound 27, (1-(3,4-Dichlorobenzyl)-6-fluoro-1H-indol-3-yl)methanol] | 10 ± 5 µM | < 10000 nM | 8900 nM | 9000 ± 2000 nM | –
13 | Clc1ccc(Cn2ccc3ccccc32)cc1Cl [compound 28, 1-(3,4-Dichlorobenzyl)-1H-indole] | 18 ± 7 µM | ~8000 nM | – | 8100 nM | –
14 | O=[N+]([O-])c1ccc2c(c1)c(CO)cn2Cc1ccc(Cl)c(Cl)c1 [compound 29, (1-(3,4-Dichlorobenzyl)-5-nitro-1H-indol-3-yl)methanol] | 4 ± 1 µM | < 10000 nM | 7200 nM | 7000 nM | –
15 | OCc1cn(Cc2ccccc2)c2ccc(Br)cc12 [compound 30, (1-Benzyl-5-bromo-1H-indol-3-yl)methanol] | 5 ± 3 µM | < 10000 nM | 6100 nM | 6000 ± 1000 nM | –
16 | COc1cccc2c1c(CO)cn2Cc1ccc(Cl)c(Cl)c1 [compound 31, (1-(3,4-Dichlorobenzyl)-4-methoxy-1H-indol-3-yl)methanol] | 5 ± 2 µM | 6000 ± 2000 nM | 5500 nM | – | –
17 | OCc1cn(Cc2ccc(Cl)c(Cl)c2)c2ccc(F)cc12 [compound 32] | 8 ± 2 µM | < 10000 nM | 5300 nM | 5000 ± 1000 nM | –
18 | OCc1cn(Cc2ccc(Cl)c(Cl)c2)c2cccc(F)c12 [compound 33, (1-(3,4-Dichlorobenzyl)-4-fluoro-1H-indol-3-yl)methanol] | 3 µM | 3000 nM | 2400 nM | 2000 nM | IC50 [4]: 3 µM; IC50 [5]: 3 ± 1 µM; IC50 ([9]; Homo sapiens): 0.79 ± 0.37 µM; IC50 ([6]; 3D7, 72 h, + IDP (125 μM)): 3.1 µM; IC50 ([6]; 3D7, without IDP): 2.7 ± 0.3 µM; IC50 ([7]; NF54, 72 h, + IDP (125 μM)): 2.2 µM; IC50 ([7]; NF54, without IDP): 2.4 ± 0.6 µM
19 | COc1ccc(CNCc2cn(Cc3ccc(Cl)c(Cl)c3)c3ccccc23)c(OC)c1 [compound 34, 1-(1-(3,4-Dichlorobenzyl)-1H-indol-3-yl)-N-(2,4-dimethoxybenzyl)methan-amine] | 21 ± 6 µM | – | – | – | inhibition at 10 µM ([9]; Homo sapiens, HepG2, at 10 μM): 90%
20 | Cc1nc(N)sc1-c1csc(Nc2ccccc2C(F)(F)F)n1 [compound 35] | 48 ± 12 µM | 43000 ± 2000 nM | – | – | –
21 | Oc1ccc(-c2csc(Nc3cccc(C(F)(F)F)c3)n2)c(O)c1 [compound 37] | 19 ± 2 µM | 23000 ± 1000 nM | – | – | –
22 | Cc1ccc(Nc2nc(-c3ccc(O)c(O)c3)cs2)cc1C [compound 42, 4-(2-((3,4-Dimethylphenyl)amino)thiazol-4-yl)benzene-1,2-diol] | 7 ± 1 µM | 4000 ± 1000 nM | 4400 nM | – | –
23 | Cc1ccc(C)c(Nc2nc(-c3ccccn3)cs2)c1 [compound 43, N-(2,5-Dimethylphenyl)-4-(pyridin-2-yl)thiazol-2-amine] | 5 ± 1 µM | 4000 ± 2000 nM | 3700 nM | – | –
24 | Cc1nc(N)sc1-c1csc(Nc2cccc(C(F)(F)F)c2)n1 [compound 45] | 5 µM | 3000 nM | 2500 nM | – | –
25 | Cc1ccc(Nc2nc(-c3ccccn3)cs2)cc1C [compound 46, N-(3,4-Dimethylphenyl)-4-(pyridin-2-yl)thiazol-2-amine] | 2 µM | 2000 ± 1000 nM | 1500 nM | – | IC50 [4]: 2 µM; IC50 [5]: 2 ± 1 µM; IC50 ([6]; 3D7, 72 h, + IDP (125 μM)): 2.8 µM; IC50 ([6]; 3D7, without IDP): 2.3 ± 0.4 µM; IC50 ([7]; NF54, 72 h, + IDP (125 μM)): 1.2 µM; IC50 ([7]; NF54, without IDP): 2.1 ± 0.8 µM
26 | Cc1nc(N)sc1-c1csc(Nc2ccc(Cl)cn2)n1 [compound 47] | 2 µM | 1000 nM | – | – | IC50 [4]: 2 ± 1 µM; IC50 [5]: 2 µM; IC50 ([6]; 3D7, 72 h, + IDP (125 μM)): 2.2 µM; IC50 ([6]; 3D7, without IDP): 2 ± 0.7 µM; IC50 ([7]; NF54, 72 h, + IDP (125 μM)): 1.2 µM; IC50 ([7]; NF54, without IDP): 1.6 ± 0.3 µM
27 | N-(3-Chloro-2-methylphenyl)-5-(pyridin-2-yl)thiazol-2-amine [compound 44] | – | – | – | 3000 nM | IC50 ([2]; table of compounds as SMILES with biological activity, strain not given, values match 3D7 method III, read-out: IC50): 2800 nM; IC50 ([3]; chloroquine-resistant Dd2, method III): 2 ± 1 µM
